ChEMBL document CHEMBL5518180, “Design, synthesis, and biological evaluation of harmine derivatives as topoisomerase I inhibitors for cancer treatment” (Eur J Med Chem, 2024)
Active and inactive are the calls of the source. The rule behind the calls is not given here.

Tests used:
MCF7 [1] = test: Antiproliferative activity against human MCF7 cells assessed as inhibition of cell growth incubated for 48 hrs by MTT assay; assay type: functional, cell-based; settings: MCF7, 48 h
MDA-MB-231 = test: Antiproliferative activity against human MDA-MB-231 cells assessed as inhibition of cell growth incubated for 48 hrs by MTT assay; assay type: functional, cell-based; settings: MDA-MB-231, 48 h
HepG2 = test: Antiproliferative activity against human HepG2 cells assessed as inhibition of cell growth incubated for 48 hrs by MTT assay; assay type: functional, cell-based; settings: HepG2, 48 h
HT-29 = test: Antiproliferative activity against human HT-29 cells assessed as inhibition of cell growth incubated for 48 hrs by MTT assay; assay type: functional, cell-based; settings: HT-29, 48 h
A549 = test: Antiproliferative activity against human A549 cells assessed as inhibition of cell growth incubated for 48 hrs by MTT assay; assay type: functional, cell-based; settings: A549, 48 h
PC-3 = test: Antiproliferative activity against human PC-3 cells assessed as inhibition of cell growth incubated for 48 hrs by MTT assay; assay type: functional, cell-based; settings: PC-3, 48 h
[2] = Cytotoxicity against human L02 cells assessed as inhibition of cell growth incubated for 48 hrs by MTT assay; assay type: toxicity, cell-based
4T1 = test: Antitumor activity against mouse 4T1 cells transplanted in BALB/c mouse assessed as tumor growth inhibition rate at 10 mg/kg, ip administered for 14 days relative to control; assay type: functional; parameters: scale not given: the % may be the effect or the level left; settings: time 14 day
MCF7 [3] = test: Induction of apoptosis in human MCF7 cells assessed as viable cells at 25 uM incubated for 24 hrs by Annexin V-FITC/Propidium Iodide staining based flow cytometry analysis (reference value: 91.8 %); assay type: functional; settings: read-out: Activity
MCF7 [4] = test: Induction of apoptosis in human MCF7 cells assessed as early apoptotic cells at 25 uM incubated for 24 hrs by Annexin V-FITC/Propidium Iodide staining based flow cytometry analysis (reference value: 2.54 %); assay type: functional
MCF7 [5] = test: Induction of apoptosis in human MCF7 cells assessed as late apoptotic cells at 25 uM incubated for 24 hrs by Annexin V-FITC/Propidium Iodide staining based flow cytometry analysis (reference value: 5.58 %); assay type: functional
MCF7 [6] = test: Induction of apoptosis in human MCF7 cells assessed as necrotic cells at 25 uM incubated for 24 hrs by Annexin V-FITC/Propidium Iodide staining based flow cytometry analysis (reference value: 0.082 %); assay type: functional
MCF7 [7] = test: Induction of DNA double-strand breaks in human MCF7 cells assessed as increase in gamma-H2AX at 10 uM incubated for 48 hrs by DAPI staining based confocal laser scanning microscopy; assay type: functional, cell-based
MCF7 [8] = test: Induction of DNA damage in human MCF7 cells at 10 uM incubated for 24 hrs by Comet assay; assay type: functional, cell-based

Structure (SMILES)	IC50 (MCF7 [1]) [µM]	IC50 (MDA-MB-231) [µM]	IC50 (HepG2) [µM]	IC50 (HT-29) [µM]	IC50 (A549) [µM]	IC50 (PC-3) [µM]	IC50 at 48 h [2] [µM]	Activity (4T1) [%]	viability at 25 µM (MCF7 [3]) [%]	Activity (MCF7 [4]) [%]	Activity (MCF7 [5]) [%]	Activity (MCF7 [6]) [%]	Activity (MCF7 [7])	Activity (MCF7 [8])
COc1ccc2[nH]c3c(C(=O)/C=C/c4ccc(OC)c(OC)c4OC)nccc3c2c1	6.1	> 20	> 20	6.08	7.1	> 10	> 20	–	–	–	–	–	–	–
CCc1ccc(/C=C/C(=O)c2nccc3c2[nH]c2ccccc23)cc1	> 20	> 20	> 20	> 20	> 20	> 10	> 20	–	–	–	–	–	–	–
O=C(/C=C/c1cc(F)c(F)c(F)c1)c1nccc2c1[nH]c1ccccc12	0.88	2.05	0.96	0.89	5.73	1.19	17.8	–	–	–	–	–	–	–
COc1ccc2[nH]c3c(C(=O)/C=C/c4ccc(Br)cc4)nccc3c2c1	8.45	5.67	15.7	7.74	> 20	4.18	> 20	–	–	–	–	–	–	–
O=C(/C=C/c1ccccc1Cl)c1nccc2c1[nH]c1ccccc12	3.35	3.43	2.8	12.5	5.37	2.39	11.4	–	–	–	–	–	–	–
COc1ccc2[nH]c3c(C(=O)/C=C/c4cccc(Br)c4)nccc3c2c1	> 20	> 20	> 20	0.49	> 20	> 10	> 20	–	–	–	–	–	–	–
CCc1c2c(nc3ccc(OC(=O)N4CCC(N5CCCCC5)CC4)cc13)-c1cc3c(c(=O)n1C2)COC(=O)[C@]3(O)CC [IRINOTECAN]	–	–	–	–	–	–	–	41.27	–	–	–	–	–	–
O=C(/C=C/c1ccc2c(c1)OCCO2)c1nccc2c1[nH]c1ccccc12	> 20	15.2	13.2	> 20	> 20	> 10	> 20	–	–	–	–	–	–	–
COc1ccc2[nH]c3c(C(=O)/C=C/C=C/c4ccccc4)nccc3c2c1	17.5	> 20	18.9	> 20	> 20	> 10	> 20	–	–	–	–	–	–	–
COc1ccc2[nH]c3c(C(=O)/C=C/c4cccc(I)c4)nccc3c2c1	1.58	8.71	> 20	2.34	> 20	> 10	> 20	–	–	–	–	–	–	–
COc1ccc2[nH]c3c(C(=O)/C=C/c4c(C)cccc4C)nccc3c2c1	10.1	> 20	> 20	> 20	> 20	> 10	> 20	–	–	–	–	–	–	–
COc1ccc2[nH]c3c(C(=O)/C=C/c4cc(OC)c(OC)cc4Br)nccc3c2c1	8.05	> 20	> 20	11.3	4.51	> 10	> 20	–	–	–	–	–	–	–
COc1ccc2[nH]c3c(C(=O)/C=C/c4c(OC)cccc4OC)nccc3c2c1	5.71	12	7.13	13.6	15.3	> 10	> 20	–	–	–	–	–	–	–
COc1ccc2[nH]c3c(C(=O)/C=C/c4cc(Cl)ccc4Cl)nccc3c2c1	7.95	8.13	> 20	0.68	> 20	> 10	> 20	–	–	–	–	–	–	–
COc1ccc2[nH]c3c(C(=O)/C=C/c4ccc(F)c(OC)c4)nccc3c2c1	0.77	1.41	6.33	2.47	6.48	0.99	> 20	–	–	–	–	–	–	–
COc1ccc2[nH]c3c(C(=O)/C=C/c4ccc(Cl)c(C)c4)nccc3c2c1	4.38	6.45	2.74	1.89	7.49	> 10	> 20	–	–	–	–	–	–	–
COc1ccc2[nH]c3c(C(=O)/C=C/c4ccccc4Cl)nccc3c2c1	> 20	1.43	> 20	0.52	> 20	> 10	> 20	–	–	–	–	–	–	–

Structure (SMILES)	IC50 (MCF7 [1]) [µM]	IC50 (MDA-MB-231) [µM]	IC50 (HepG2) [µM]	IC50 (HT-29) [µM]	IC50 (A549) [µM]	IC50 (PC-3) [µM]	IC50 at 48 h [2] [µM]	Activity (4T1) [%]	viability at 25 µM (MCF7 [3]) [%]	Activity (MCF7 [4]) [%]	Activity (MCF7 [5]) [%]	Activity (MCF7 [6]) [%]	Activity (MCF7 [7])	Activity (MCF7 [8])
COc1ccc2c(c1)[nH]c1c(C)nccc12 [HARMINE]	13.4	13.2	19.2	12.2	–	15.6	9.49	–	82.7	9.74	7.48	0.055	–	–
COc1ccc2[nH]c3c(C(=O)/C=C/c4cc(F)c(F)c(F)c4)nccc3c2c1	4.23	6.52	15.9	2.72	> 20	> 10	> 20	–	–	–	–	–	–	–
O=C(/C=C/c1ccc(Br)cc1)c1nccc2c1[nH]c1ccccc12	3.54	9.21	> 20	9.73	12.2	> 10	> 20	–	–	–	–	–	–	–
COc1cc(/C=C/C(=O)c2nccc3c2[nH]c2ccccc23)ccc1F	2.38	3.25	5.7	10.9	3.07	1.02	> 20	–	–	–	–	–	–	–
O=C(/C=C/c1cccc(I)c1)c1nccc2c1[nH]c1ccccc12	1.6	5.17	> 20	> 20	> 20	> 10	> 20	–	–	–	–	–	–	–
O=C(/C=C/c1ccc([N+](=O)[O-])cc1)c1nccc2c1[nH]c1ccccc12	5.87	0.62	> 20	3.96	> 20	> 10	> 20	–	–	–	–	–	–	–
COc1cc(Br)c(/C=C/C(=O)c2nccc3c2[nH]c2ccccc23)cc1OC	2.21	7.03	9.65	3.75	9.83	> 10	> 20	–	–	–	–	–	–	–
CC[C@@]1(O)C(=O)OCc2c1cc1n(c2=O)Cc2cc3ccccc3nc2-1 [CAMPTOTHECIN]	6.85	0.62	1.8	1.87	7.8	6.6	0.59	–	–	–	–	–	Active	Active
O=C(/C=C/c1cc(Cl)ccc1Cl)c1nccc2c1[nH]c1ccccc12	0.59	2.77	3.37	3.14	6.78	1.4	9.91	–	–	–	–	–	–	–
COc1ccc2[nH]c3c(C(=O)/C=C/c4ccc5c(c4)OCCO5)nccc3c2c1	14.5	18.1	15.6	> 20	> 20	3.79	> 20	–	–	–	–	–	–	–
COc1cccc(OC)c1/C=C/C(=O)c1nccc2c1[nH]c1ccccc12	10.5	> 20	> 20	> 20	> 20	> 10	> 20	–	–	–	–	–	–	–
COc1ccc2[nH]c3c(C(=O)/C=C/c4ccc(Cl)c([N+](=O)[O-])c4)nccc3c2c1	> 20	2.99	7.72	> 20	5.72	> 10	> 20	–	–	–	–	–	–	–
COc1ccc(/C=C/C(=O)c2nccc3c2[nH]c2ccccc23)c(OC)c1OC	> 20	> 20	11.6	> 20	> 20	> 10	> 20	–	–	–	–	–	–	–
COc1ccc(/C=C/C(=O)c2nccc3c2[nH]c2ccccc23)cc1	17.3	> 20	> 20	19	> 20	> 10	> 20	–	–	–	–	–	–	–
O=C(/C=C/c1cccc(Br)c1)c1nccc2c1[nH]c1ccccc12	4.99	6.44	5.89	7.24	11.8	2.69	14.3	–	–	–	–	–	–	–
COc1ccc2[nH]c3c(C(=O)/C=C/c4ccc([N+](=O)[O-])cc4)nccc3c2c1	15.5	> 20	> 20	> 20	> 20	> 10	> 20	–	–	–	–	–	–	–
